This is an account of results in patent US4713374A, “Ganglioside derivatives” (priority 1984, dated 1987).

SMILES strings stand for the structures.

This assay deals with PC12 cells. Put plainly: Neurite sprouting in PC12 cells. The assay is classed as cell-based. The settings on record: 10^-6 M, serum-free vehicle with 50 ng/ml NGF, third day; controls 21.5.
Experimental: The cells are then washed three times in a serum-free vehicle. […] This effect is evaluated by counting the number of cells with neurites at the third day.
As for `CCCCCCCCCCCCC/C=C/[C@@H](OC(C)=O)[C@H](CO[C@@H]1O[C@H](COC(C)=O)[C@@H](O[C@@H]2O[C@H](COC(C)=O)[C@H](O[C@@H]3O[C@H](COC(C)=O)[C@H](OC(C)=O)[C@H](O[C@@H]4O[C@H](COC(C)=O)[C@H](OC(C)=O)[C@H](OC(C)=O)[C@H]4OC(C)=O)[C@H]3NC(C)=O)[C@H](O[C@]3(C(=O)O)C[C@H](OC(C)=O)[C@@H](NC(C)=O)[C@H]([C@H](OC(C)=O)[C@@H](COC(C)=O)OC(C)=O)O3)[C@H]2OC(C)=O)[C@H](OC(C)=O)[C@H]1OC(C)=O)NC(=O)CCCCCCCCCCCCCCCCC` [Peracetylated GM1, Peracetylated derivative of the ganglioside GM1], the “% of the no. of cells with neurites at 3rd day” value (“% of the no. of cells” below) was 30.2%.

In the case of `CCCCCCCCCCCCC/C=C/[C@@H](O)[C@H](CO[C@@H]1O[C@H](CO)[C@@H](O[C@@H]2O[C@H](CO)[C@H](O[C@@H]3O[C@H](CO)[C@H](O)[C@H](O[C@@H]4O[C@H](CO)[C@H](O)[C@H](O)[C@H]4O)[C@H]3NC(C)=O)[C@H](O[C@]3(C(=O)OCC)C[C@H](O)[C@@H](NC(C)=O)[C@H]([C@H](O)[C@H](O)CO)O3)[C@H]2O)[C@H](O)[C@H]1O)NC(=O)CCCCCCCCCCCCCCCCC` [Ethylic ester of GM1, Ethyl ester of the ganglioside GM1], the “% of the no. of cells” value was 37.1%.

In the case of `CCCCCCCCCCCCC/C=C/[C@@H](O)[C@H](CO[C@@H]1O[C@H](CO)[C@@H](O[C@@H]2O[C@H](CO)[C@H](O[C@@H]3O[C@H](CO)[C@H](O)[C@H](O[C@@H]4O[C@H](CO)[C@H](O)[C@H](O)[C@H]4O)[C@H]3NC(C)=O)[C@H](O[C@]3(C(=O)NCc4ccccc4)C[C@H](O)[C@@H](NC(C)=O)[C@H]([C@H](O)[C@H](O)CO)O3)[C@H]2O)[C@H](O)[C@H]1O)NC(=O)CCCCCCCCCCCCCCCCC` [Benzylamide of GM1, Benzylamide of the ganglioside GM1], the “% of the no. of cells” value is 30.8%.

Consider `CCCCCCCCCCCCC/C=C/[C@@H](OC(C)=O)[C@H](CO[C@@H]1O[C@H](COC(C)=O)[C@@H](O[C@@H]2O[C@H](COC(C)=O)[C@H](O[C@@H]3O[C@H](COC(C)=O)[C@H](OC(C)=O)[C@H](O[C@@H]4O[C@H](COC(C)=O)[C@H](OC(C)=O)[C@H](OC(C)=O)[C@H]4OC(C)=O)[C@H]3NC(C)=O)[C@H](O[C@]3(C(N)=O)C[C@H](OC(C)=O)[C@@H](NC(C)=O)[C@H]([C@H](OC(C)=O)[C@@H](COC(C)=O)OC(C)=O)O3)[C@H]2OC(C)=O)[C@H](OC(C)=O)[C@H]1OC(C)=O)NC(=O)CCCCCCCCCCCCCCCCC` [Amide of peracetylated GM1, Peracetylated derivative of the amide of the ganglioside GM1], for which the “% of the no. of cells” value was determined as 31.4%.

Regarding `CCCCCCCCCCCCC/C=C/[C@@H](O)[C@H](CO[C@@H]1O[C@H](CO)[C@@H](O[C@@H]2O[C@H](CO)[C@H](O[C@@H]3O[C@H](CO)[C@H](O)[C@H](O[C@@H]4O[C@H](CO)[C@H](O)[C@H](O)[C@H]4O)[C@H]3NC(C)=O)[C@H](O[C@]3(C(=O)NCCO)C[C@H](O)[C@@H](NC(C)=O)[C@H]([C@H](O)[C@H](O)CO)O3)[C@H]2O)[C@H](O)[C@H]1O)NC(=O)CCCCCCCCCCCCCCCCC` [Ethanolamide of GM1, Ethanolamide of the ganglioside GM1], the “% of the no. of cells” value was found to be 41.2%.

On to `CCCCCCCCCCCCC/C=C/[C@@H](O)[C@H](CO[C@@H]1O[C@H](CO)[C@@H](O[C@@H]2O[C@H](CO)[C@H](O[C@@H]3O[C@H](CO)[C@H](O)[C@H](O[C@@H]4O[C@H](CO)[C@H](O)[C@H](O)[C@H]4O)[C@H]3NC(C)=O)[C@H](O[C@]3(C(=O)NC(C)C)C[C@H](O)[C@@H](NC(C)=O)[C@H]([C@H](O)[C@H](O)CO)O3)[C@H]2O)[C@H](O)[C@H]1O)NC(=O)CCCCCCCCCCCCCCCCC` [Isopropylamide of GM1, Isopropylamide of the ganglioside GM1], for which the “% of the no. of cells” value is given as 31.4%.

In the case of `CCCCCCCCCCCCC/C=C/[C@@H](O)[C@H](CO[C@@H]1O[C@H](CO)[C@@H](O[C@@H]2O[C@H](CO)[C@H](O[C@@H]3O[C@H](CO)[C@H](O)[C@H](O[C@@H]4O[C@H](CO)[C@H](O)[C@H](O)[C@H]4O)[C@H]3NC(C)=O)[C@H](O[C@]3(C(=O)OCc4ccccc4)C[C@H](O)[C@@H](NC(C)=O)[C@H]([C@H](O)[C@H](O)CO)O3)[C@H]2O)[C@H](O)[C@H]1O)NC(=O)CCCCCCCCCCCCCCCCC` [Benzylic ester of GM1, Benzyl ester of the ganglioside GM1], the “% of the no. of cells” value amounted to 28.3%.

On to `CCCCCCCCCCCCC/C=C/[C@@H](O)[C@H](CO[C@@H]1O[C@H](CO)[C@@H](O[C@@H]2O[C@H](CO)[C@H](O[C@@H]3O[C@H](CO)[C@H](O)[C@H](O[C@@H]4O[C@H](CO)[C@H](O)[C@H](O)[C@H]4O)[C@H]3NC(C)=O)[C@H](O[C@]3(C(=O)OC(C)C)C[C@H](O)[C@@H](NC(C)=O)[C@H]([C@H](O)[C@H](O)CO)O3)[C@H]2O)[C@H](O)[C@H]1O)NC(=O)CCCCCCCCCCCCCCCCC` [Isopropylic ester of GM1, Isopropyl ester of the ganglioside GM1], for which the “% of the no. of cells” value amounted to 37.0%.

For the compound `CCCCCCCCCCCCC/C=C/[C@@H](O)[C@H](CO[C@@H]1O[C@H](CO)[C@@H](O[C@@H]2O[C@H](CO)[C@H](O[C@@H]3O[C@H](CO)[C@H](O)[C@H](O[C@@H]4O[C@H](CO)[C@H](O)[C@H](O)[C@H]4O)[C@H]3NC(C)=O)[C@H](O[C@]3(C(=O)NCCN(C)C)C[C@H](O)[C@@H](NC(C)=O)[C@H]([C@H](O)[C@H](O)CO)O3)[C@H]2O)[C@H](O)[C@H]1O)NC(=O)CCCCCCCCCCCCCCCCC` [Dimethylaminoethylamide of GM1, Dimethylaminoethylamide of the ganglioside GM1], the “% of the no. of cells” value came to 34.8%.

Consider `CCCCCCCCCCCCC/C=C/[C@@H](O)[C@H](CO[C@@H]1O[C@H](CO)[C@@H](O[C@@H]2O[C@H](CO)[C@H](O[C@@H]3O[C@H](CO)[C@H](O)[C@H](O[C@@H]4O[C@H](CO)[C@H](O)[C@H](O)[C@H]4O)[C@H]3NC(C)=O)[C@H](O[C@]3(C(=O)OCC(=O)OCC)C[C@H](O)[C@@H](NC(C)=O)[C@H]([C@H](O)[C@H](O)CO)O3)[C@H]2O)[C@H](O)[C@H]1O)NC(=O)CCCCCCCCCCCCCCCCC` [Etoxycarbonylmethylic ester of GM1, Ethoxycarbonylmethyl ester of the ganglioside GM1], for which the “% of the no. of cells” value is 27.3%.

On to `CCCCCCCCCCCCC/C=C/[C@@H](O)[C@H](CO[C@@H]1O[C@H](CO)[C@@H](O[C@@H]2O[C@H](CO)[C@H](O[C@@H]3O[C@H](CO)[C@H](O)[C@H](O[C@@H]4O[C@H](CO)[C@H](O)[C@H](O)[C@H]4O)[C@H]3NC(C)=O)[C@H](O[C@]3(C(=O)N(C)CC)C[C@H](O)[C@@H](NC(C)=O)[C@H]([C@H](O)[C@H](O)CO)O3)[C@H]2O)[C@H](O)[C@H]1O)NC(=O)CCCCCCCCCCCCCCCCC` [Ethylmethylamide of GM1, Ethylmethylamide of the ganglioside GM1], for which the “% of the no. of cells” value is 35.3%.
